# Results as given in patent US20040054130A1, “Insulin potentiating peptides” (priority 2000, published 2004).
# Square brackets hold non-standard residues; d marks the D form. Ends that are not written are not given here. Cha = N[C@@H](CC1CCCCC1)C(=O)O; Orn = NCCC[C@H](N)C(=O)O; βAla = NCCC(=O)O
# Assays:
# [1] = system: Zucker (fa/fa) rat hemidiaphragm muscle; assay: In vitro glycogen synthesis (glucose incorporation into glycogen) in hemidiaphragm muscle with exogenous insulin; type: cell-based; parameters: key to Activity: insulin-potentiating: improved activity compared to insulin alone; inactive: equal activity compared to insulin alone; insulin antagonist: reduced activity compared to insulin alone; *-**: increasing insulin-potentiating activity; details: for insulin-potentiating activity on in vitro glycogen synthesis (in words): with 1 mU/ml exogenous insulin
# Method: In vitro insulin-potentiating effects of the synthetic peptide analogues were assessed by measuring the rates of exogenous glucose incorporation into glycogen in rat hemidiaphragms (Lim et al, 1992). Hemidiaphragms from overnight-fasted Zucker fatty(fa/fa) female rats were dissected, and divided into segments of approximate 35-50 mg each. Tissues from the same rat were used for all groups. The tissue was incubated in 2 ml of Krebs-Ringer bicarbonate (KRB) buffer (pH 7.4) containing [^14C]glucose (5.5 mM, final specific activity 0.05 mCi/mmol) under an atmosphere of 95% 02-5% CO2 at 37° C. for 1.5 hr. After incubation, tissues were removed, washed with cold buffer and blotted. Tissues were digested, the muscle glycogen was precipitated and the ^14C-radioactivity was counted in a Wallac 1410 liquid scintillation counter. The biological activity of peptide analogues was measured as the rate of mmol glucose incorporation into muscle glycogen/g tissue/hr.
# The sensitivity of hemidiaphragm muscle tissue to insulin (0.1-100 mU/ml) on glycogen synthesis was first analyzed. The dose response curves for peptide analogues on the insulin-potentiating effect to glycogen synthesis were then measured using cumulative increasing concentrations (10^−3 10 μmol/ml) of peptides in the presence of insulin (1 mU/ml). The biological activity of each peptide analogue was measured as the rate of glucose incorporation into muscle glycogen (μmol/g tissue/hr), and represented by the mean±SEM from eight determinations.
# To determine the insulin-potentiating effect of the peptide analogues, the rates of incorporation of glucose into muscle glycogen were measured. The rates of glycogen synthesis (μmol/g tissue/hr) were 0.52±0.05, 0.60±0.04, 1.27±0.06 and 1.52±0.07 inresponse to 0.33, 1, 3.33 and 10 mU/ml insulin respectively, as shown in FIG. 1.
# The insulin-potentiating effect of the peptide analogues was then observed by studying their dose response. curves for glucose incorporation into glycogen in the presence of 1 mU/ml exogenous insulin. The effects of peptides 1, 3, 4, 6, 7, 8 and 10 were evident at doses higher than 0.01 μmol/ml, and continued to increase with increasing peptide concentration to 1 μmol/ml, as shown in FIGS. 2A and 2B.
# The activity of each analogue was assessed by in vitro measurement of glycogen synthesis in muscle, as described above.
# normal male Wistar rats = assay: Intravenous insulin tolerance test (IVITT); type: in vivo, rat; details: 5 μmol/kg i.v.; for Reduction in Blood Glucose: 0.1 U insulin/kg; for insulin-potentiating effect on decreasing blood glucose in IVITT (in words): from 30 min after commencement
# Method: IVITTs (0.1 U insulin/kg body weight) were performed on overnight-fasted Wistar male rats as previously described (Lim et al, 1992). Blood samples were taken for glucose estimation at 15, 30, 45, 60 min after the commencement of the tests. Six animals in each group were used.
# IVITTs were performed on normal male Wistar rats after a single intravenous (i.v.) injection of the hGH peptide analogues at a dose of 5 μmol/kg body weight. The insulin-potentiating effects of peptides 6, 7, 8 and 10 on decreasing blood glucose levels of treated animals became significant since 30 min after the commencement of the test. Bioactivity was retained when the Arg^8 or Phe^10 residue of Asu^11-hGH(6-13) peptide was substituted with Lys or Tyr respectively (1.92±0.17 or 1.62±0.18 vs. 1.65±0.12 mmol/L at 45 min), as shown in Table 3. However, no insulin-potentiating effect was observed when either Arg^8 or Phe^10 was substituted by Gly (0.92±0.08 or 1.08±0.08 mmol/L respectively vs. 1.00±0.10 mmol/L of control at 45 min). Asu^11-hGH(8-13) also elicited this insulin-potentiating effect, but with lower potency.
# [2] = system: Zucker fatty (fa/fa) rats; assay: Basal blood glucose determination after i.p. peptide; type: in vivo, rat; details: 10 μmol/kg body weight i.p., over 150 min, vs saline
# Method: Overnight-fasted Zucker fatty(fa/fa) female rats were anaesthetized with sodium pentobarbitone (60 mg/kg body weight). After 45 min, basal blood glucose samples were taken from the tail vein, followed immediately by intraperitoneal (i.p.) injection of saline (control) or the peptide analogue (test, 10 μmol/kg body weight) in 0.4 ml of saline. Blood samples were taken at 15, 30, 60, 90, 120, 150 minutes after injection, and the blood glucose level in each sample was measured immediately by the glucose oxidase method, using a YSI Model-2300 STAT glucose analyzer (Yellow Spring, Ohio). Six animals for each group were used.
# The reduction of basal blood glucose levels in animals by different peptide analogues administered intraperitoneally (i.p.)at a dose of 10 μmol/kg body weight was measured for over 150 min.
# [3] = Table 5, compared to insulin alone
# [4] = Table 6 (corrected), summary of Table 5
substance,measurement,setting,value
Arg-Gly-Ala-Phe-NH2 (RGAF-NH2) [Peptide 14],Activity,[1]; [3],inactive
same,Activity,[1]; [4],inactive
Lys-Gly-Phe-Phe (KGFF-NH2) [Peptide 16],Activity,[1]; [3],inactive
same,insulin-potentiating activity on in vitro glycogen synthesis (in words),[1],loss of activity
insulin: exogenous insulin tested alone on hemidiaphragm glycogen synthesis (FIG. 1),rate of glycogen synthesis,[1]; 0.33 mU/ml insulin alone,0.52±0.05 μmol/g tissue/hr
same,rate of glycogen synthesis,[1]; 1 mU/ml insulin alone,0.60±0.04 μmol/g tissue/hr
same,rate of glycogen synthesis,[1]; 3.33 mU/ml insulin alone,1.27±0.06 μmol/g tissue/hr
same,rate of glycogen synthesis,[1]; 10 mU/ml insulin alone,1.52±0.07 μmol/g tissue/hr
Arg-β-Ala-Phe-Phe (R[βAla]FF; not fully specified (C-terminus); printed as Arg-β-Ala-Phe-Phe) [Peptide 18],Activity,[1]; [4],active
Leu-Ser-Arg-Leu-Gly-Asu-Asn-Ala (LSRLGDNA-NH2; not fully specified; printed as Leu-Ser-Arg-Leu-Gly-Asu-Asn-Ala) [Peptide 11],Reduction in Blood Glucose,normal male Wistar rats; 15 min,0.68 ± 0.05 mmol/L
same,Reduction in Blood Glucose,normal male Wistar rats; 30 min,0.96 ± 0.06 mmol/L
same,Reduction in Blood Glucose,normal male Wistar rats; 45 min,1.08 ± 0.08 mmol/L
same,Reduction in Blood Glucose,normal male Wistar rats; 60 min,1.12 ± 0.06 mmol/L
same,Activity,[1]; [3],inactive
Arg-Gly-Tyr-Phe-NH2 (RGYF-NH2) [Peptide 19],Activity,[1]; [4],active
Arg-Leu-Phe-Asp-Asn-Ala (RLFDNA-NH2) [Peptide 5],insulin-potentiating effect on decreasing blood glucose in IVITT (in words),normal male Wistar rats; listed as Asn^11-hGH(8-13),no such effect
same,insulin-potentiating effect on decreasing blood glucose in IVITT (in words),normal male Wistar rats; listed as linear hGH(8-13),no activity
same,Reduction in Blood Glucose,normal male Wistar rats; 15 min,0.90 ± 0.09 mmol/L
same,Reduction in Blood Glucose,normal male Wistar rats; 30 min,1.01 ± 0.11 mmol/L
same,Reduction in Blood Glucose,normal male Wistar rats; 45 min,1.07 ± 0.15 mmol/L
same,Reduction in Blood Glucose,normal male Wistar rats; 60 min,1.06 ± 0.12 mmol/L
same,Activity,[1]; [3],inactive
same,insulin-potentiating activity on in vitro glycogen synthesis (in words),[1],abolished
same,hypoglycaemic effect (reduction of basal blood glucose level),[2],no hypoglycaemic effect
Arg-Gly-Phe-Cha-NH2 (RGF[Cha]-NH2; N-terminus assumed; SMILES N=C(N)NCCC[C@H](N)C(=O)NCC(=O)N[C@@H](Cc1ccccc1)C(=O)N[C@@H](CC1CCCCC1)C(N)=O) [Peptide 2],Activity,[1]; [4],antagonist
same,hypoglycaemic effect (reduction of basal blood glucose level),[2]; listed as Arg-Gly-Phe-Cha,no hypoglycaemic effect
same,hypoglycaemic effect (reduction of basal blood glucose level),[2]; listed as peptide 2,significant hypoglycaemic effects
RG[Cha]F-NH2 [Peptide 20],Activity,[1]; [4],antagonist
Arg-Gly-Phe-Ala-NH2 (RGFA-NH2) [Peptide 15],Activity,[1]; [3],inactive
same,Activity,[1]; [4],inactive
Arg-Gly-Phe-Tyr-NH2 (RGFY-NH2) [Peptide 21],Activity,[1]; [3],inactive
same,Activity,[1]; [4],inactive
Arg-D-Ala-Phe-Tyr-NH2 (R[dA]FY-NH2; N-terminus assumed; SMILES C[C@@H](NC(=O)[C@@H](N)CCCNC(=N)N)C(=O)N[C@@H](Cc1ccccc1)C(=O)N[C@@H](Cc1ccc(O)cc1)C(N)=O) [Peptide 22],Activity,[1]; [4],active
Arg-Gly-Phe-Phe-NH2 (RGFF-NH2) [Peptide 1],Activity,[1]; [4],active
same,insulin-potentiating activity on in vitro glycogen synthesis (in words),[1],stimulated glycogen synthesis
same,hypoglycaemic effect (reduction of basal blood glucose level),[2]; listed as Arg-Gly-Phe-Phe,reduced basal blood glucose levels
same,hypoglycaemic effect (reduction of basal blood glucose level),[2]; listed as peptide 1,significant hypoglycaemic effects
Arg-Ala-Phe-Phe-NH2 (RAFF-NH2) [Peptide 13],Activity,[1]; [3],inactive
same,Activity,[1]; [4],inactive
[Orn]GFF [Peptide 17],Activity,[1]; [3],inactive
same,insulin-potentiating activity on in vitro glycogen synthesis (in words),[1],loss of activity
Leu-Ser-Gly-Leu-Phe-Asu-Asn-Ala (LSGLFDNA-NH2; not fully specified; printed as Leu-Ser-Gly-Leu-Phe-Asu-Asn-Ala) [Peptide 9],Reduction in Blood Glucose,normal male Wistar rats; 15 min,0.87 ± 0.12 mmol/L
same,Reduction in Blood Glucose,normal male Wistar rats; 30 min,0.80 ± 0.14 mmol/L
same,Reduction in Blood Glucose,normal male Wistar rats; 45 min,0.88 ± 0.15 mmol/L
same,Reduction in Blood Glucose,normal male Wistar rats; 60 min,0.74 ± 0.16 mmol/L
same,Activity,[1]; [3],inactive
Ala-Gly-Phe-Phe (AGFF-NH2) [Peptide 12],Activity,[1]; [3],inactive
Leu-Ser-Lys-Leu-Phe-Asu-Asn-Ala (LSKLFDNA-NH2; not fully specified; printed as Leu-Ser-Lys-Leu-Phe-Asu-Asn-Ala) [Peptide 8],insulin-potentiating effect on decreasing blood glucose in IVITT (in words),normal male Wistar rats,significant
same,Reduction in Blood Glucose,normal male Wistar rats; 15 min,1.08 ± 0.10 mmol/L
same,Reduction in Blood Glucose,normal male Wistar rats; 30 min,1.35 ± 0.14 mmol/L
same,Reduction in Blood Glucose,normal male Wistar rats; 45 min,1.92 ± 0.17 mmol/L
same,Reduction in Blood Glucose,normal male Wistar rats; 60 min,1.78 ± 0.17 mmol/L
same,insulin-potentiating activity on in vitro glycogen synthesis (in words),[1],active
Leu-Ser-Arg-Leu-Tyr-Asu-Asn-Ala (LSRLYDNA-NH2; not fully specified; printed as Leu-Ser-Arg-Leu-Tyr-Asu-Asn-Ala) [Peptide 10],insulin-potentiating effect on decreasing blood glucose in IVITT (in words),normal male Wistar rats,significant
same,Reduction in Blood Glucose,normal male Wistar rats; 15 min,1.03 ± 0.10 mmol/L
same,Reduction in Blood Glucose,normal male Wistar rats; 30 min,1.52 ± 0.12 mmol/L
same,Reduction in Blood Glucose,normal male Wistar rats; 45 min,1.62 ± 0.18 mmol/L
same,Reduction in Blood Glucose,normal male Wistar rats; 60 min,1.60 ± 0.34 mmol/L
Arg-D-Ala-Tyr-Phe-NH2 (R[dA]YF-NH2; N-terminus assumed; SMILES C[C@@H](NC(=O)[C@@H](N)CCCNC(=N)N)C(=O)N[C@@H](Cc1ccc(O)cc1)C(=O)N[C@@H](Cc1ccccc1)C(N)=O) [Peptide 24],Activity,[1]; [4],active
Arg-Leu-Phe-Phe-NH2 (RLFF-NH2) [Peptide 4],Activity,[1]; [4],active
"Arg-D-Ala-Phe-Tyr-me-NH2 (R[dA]FY-NH2; also: 'me' (methyl) after Tyr, site not settled) [Peptide 23]",Activity,[1]; [4],active
